This is an account of results in patent publication US20220054465A1, “(PYRIDIN-2-YL)AMINE DERIVATIVES AS TGF-BETA R1 (ALK5) INHIBITORS FOR THE TREATMENT OF CANCER” (Nexys Therapeutics, Inc., priority 2018, published 2022).

The assay relates to HEK-Blue TGFβ cell. As to the kind of experiment: HEK-Blue TGFβ cellular reporter gene assay (SEAP readout). The assay is classed as cell-based. The note with it: HEK-Blue TGFβ cells stimulated with TGF-β, 22-23 h incubation, SEAP read at 630 nm. Here is the method:
HEK-Blue TGFβ Cellular Reporter Gene Assay:
HEK-Blue TGFβ cell was purchased from Invivogen. Cell suspension of 2.5×10^5 cells/ml was prepared using Test Medium (DMEM containing 0.5% v/v heat-inactivated FBS). TGF-β working solution (6 ng/ml) was obtained through diluting TGF-β stock solution (10 μg/ml) by Test Medium before use. Eight different concentrations of all compounds were obtained by 3× gradient dilution method using TGF-β working solution. Add 100 μl of Test Medium (Vehicle) or test article or TGF-β working solution per well of a flat-bottom 96-well plate. Add 100 μl of HEK-Blue TGF-β cell suspension per well. Incubate the plate at 37° C. in a CO2 incubator for 22-23 h. Add 150 μl of resuspended QUANTI-Blue per well of a new flat-bottom 96-well plate. Add 30 μl of induced HEK-Blue TGF-β cells supernatant. Avoid pipetting at the bottom of wells. Incubate the plate at 37° C. incubator for 30-40 min. Determine secreted embryonic alkaline phosphatase (SEAP) levels using a spectrophotometer at 630 nm.
The inhibition was calculated using the equation: […]

A value given as a limit tells only on which side of the number the result lay.

In turn, `COc1ccc(Nc2cc(Oc3cc(C)c(C)nc3-c3ccccn3)ccn2)cc1CCc1nn[nH]n1` [Example 177] came in with an IC50 of 150 nM. This counts as sub-micromolar. Take `CC(C)(C(=O)O)c1cccc(Nc2cc(Oc3cn(C4COC4)nc3-c3ccccc3)ccn2)c1` [Example 126]: the midpoint of inhibition, the IC50, lay at 200 nM. Next, `Cc1cc(Oc2ccnc(Nc3cccc(Cc4nnn(CC(=O)O)n4)c3)c2)c(-c2ccccn2)nc1C` [Example 34A, 2-(5-(3-((4-((5,6-dimethyl-[2,2′-bipyridin]-3-yl)oxy)pyridin-2-yl)amino)benzyl)-2H-tetrazol-2-yl)acetic acid]: 12700 nM. Next, `CC(C)(C(=O)O)c1cccc(Nc2cc(Oc3cn(C(F)F)nc3-c3ccccc3)ccn2)c1` [Example 121]: 78 nM; `Cc1nc(-c2ccccc2)c(Oc2ccnc(Nc3cccc(C(C)(C)C(=O)O)c3)c2)cc1C1CC1` [Example 101]: 3310 nM.

Consider `Cc1nc(-c2ccccc2)c(Oc2ccnc(Nc3cccc(C(C)(C)C(=O)O)c3)c2)cc1C(C)C` [Example 102], for which the IC50 amounted to 2710 nM. This IC50 and that of the compound before are within 1.5-fold of each other. With `CCc1nc(C)c(Oc2ccnc(Nc3cccc(CCC(=O)O)c3)c2)cc1C` [Example 149] the figure was 21 nM. With `CC(C)(C(=O)O)c1cccc(Nc2cc(Oc3cn(C4CCC4)nc3-c3ccccc3)ccn2)c1` [Example 125] the figure was 66 nM; with `COc1ccc(-c2nc(C)ccc2Oc2ccnc(Nc3cccc(C(C)(C)C(=O)O)c3)c2)cc1` [Example 88], 39 nM; with `Cc1cc(Oc2ccnc(Nc3cncc(CCC(=O)O)c3)c2)c(-c2ccccn2)nc1C` [Example 3], above 10000 nM. Next, `CC(C)(Cc1cccc(Nc2cc(Oc3cn(C4CC4)nc3C3CCOCC3)ccn2)c1)C(=O)O` [Example 160]: 210 nM; `Cc1cc(Oc2ccnc(Nc3ccc(F)c(CCc4nnn[nH]4)c3)c2)c(-c2ccccn2)nc1C` [Example 21]: 160 nM; `Cc1cccc(-c2nc(C)ccc2Oc2ccnc(Nc3cccc(CCc4nn[nH]n4)c3)c2)n1` [Example 63]: 720 nM. Take `Cc1ccc(Oc2ccnc(Nc3ccc(Cl)c(CCc4nn[nH]n4)c3)c2)c(C)n1` [Example 50]: the IC50 was found to be 630 nM. `Cc1cc(Oc2ccnc(Nc3cc(CCC(=O)O)ccn3)c2)c(-c2ccccn2)nc1C` [Example 8] showed an IC50 of 590 nM. With `CCc1nc(C)c(Oc2ccnc(Nc3cc(C)cc(C(C)(C)C(=O)O)c3)c2)cc1Cl` [Example 153] the figure was 70 nM; with `O=C(O)CCc1cccc(Nc2cc(Oc3cn(C4CCC4)nc3-c3ccccc3)ccn2)c1` [Example 173], 26 nM; with `c1ccc(-c2nn(C3CCC3)cc2Oc2ccnc(Nc3cccc(CCc4nn[nH]n4)c3)c2)cc1` [Example 200], 86 nM. With `Cc1ccc(Oc2ccnc(Nc3cc(CCc4nn[nH]n4)ccc3F)c2)c(C)n1` [Example 45] the figure was 420 nM; with `Cc1ccc(Oc2ccnc(Nc3cccc(CCc4nn[nH]n4)c3)c2)c(-c2cnn(C)c2)n1` [Example 62], 2110 nM; with `Cc1ccc(Oc2ccnc(Nc3cccc(C(C)(C)C(=O)O)c3)c2)c(-c2cccc(F)c2)n1` [Example 90], 24 nM. `Cc1ccc(Oc2ccnc(Nc3ccc(F)c(CCc4nn[nH]n4)c3)c2)c(C)n1` [Example 51]: the midpoint of inhibition, the IC50, lay at 270 nM. This IC50 lies about 11-fold higher than the previous one.

As for `Cc1cc(Oc2ccnc(Nc3cccc(CCc4nnn[nH]4)c3C)c2)c(-c2ccccn2)nc1C` [Example 27], the midpoint of inhibition, the IC50, lay at 250 nM. `c1ccc(-c2nn(C3CC3)cc2Oc2ccnc(Nc3cccc(CCc4nn[nH]n4)c3)c2)cc1` [Example 197] displayed an IC50 of 35 nM. Take `CCc1nc(-c2ccccn2)c(Oc2ccnc(Nc3cccc(CCC(=O)O)c3)c2)cc1C` [Example 139]: the concentration for half-maximal inhibition (IC50) was found to be 42 nM. Next, `O=C(O)c1cc(Nc2cc(Oc3cn(C4CC4)nc3C3CCOCC3)ccn2)ccn1` [Example 117]: above 10000 nM. With `CCc1nc(C)c(Oc2ccnc(Nc3cccc(C(C)(C)C(=O)O)c3)c2)cc1C` [Example 82] the figure was 18 nM.

The term IC50 denotes the concentration at which inhibition is half-maximal.
